Active and inactive are the calls of the source.
Tests used:
Assay type in all cases: functional
[1] = molecular target: T1, Apoptotic protease-activating factor 1 (Homo sapiens, UniProt O14727); test: SAR analysis of small molecule Inhibitors of Apaf-1 in a Fluorescent assay - set 2.; details: read-out: IC50_Mean
T1 sequence (O14727 whole entry): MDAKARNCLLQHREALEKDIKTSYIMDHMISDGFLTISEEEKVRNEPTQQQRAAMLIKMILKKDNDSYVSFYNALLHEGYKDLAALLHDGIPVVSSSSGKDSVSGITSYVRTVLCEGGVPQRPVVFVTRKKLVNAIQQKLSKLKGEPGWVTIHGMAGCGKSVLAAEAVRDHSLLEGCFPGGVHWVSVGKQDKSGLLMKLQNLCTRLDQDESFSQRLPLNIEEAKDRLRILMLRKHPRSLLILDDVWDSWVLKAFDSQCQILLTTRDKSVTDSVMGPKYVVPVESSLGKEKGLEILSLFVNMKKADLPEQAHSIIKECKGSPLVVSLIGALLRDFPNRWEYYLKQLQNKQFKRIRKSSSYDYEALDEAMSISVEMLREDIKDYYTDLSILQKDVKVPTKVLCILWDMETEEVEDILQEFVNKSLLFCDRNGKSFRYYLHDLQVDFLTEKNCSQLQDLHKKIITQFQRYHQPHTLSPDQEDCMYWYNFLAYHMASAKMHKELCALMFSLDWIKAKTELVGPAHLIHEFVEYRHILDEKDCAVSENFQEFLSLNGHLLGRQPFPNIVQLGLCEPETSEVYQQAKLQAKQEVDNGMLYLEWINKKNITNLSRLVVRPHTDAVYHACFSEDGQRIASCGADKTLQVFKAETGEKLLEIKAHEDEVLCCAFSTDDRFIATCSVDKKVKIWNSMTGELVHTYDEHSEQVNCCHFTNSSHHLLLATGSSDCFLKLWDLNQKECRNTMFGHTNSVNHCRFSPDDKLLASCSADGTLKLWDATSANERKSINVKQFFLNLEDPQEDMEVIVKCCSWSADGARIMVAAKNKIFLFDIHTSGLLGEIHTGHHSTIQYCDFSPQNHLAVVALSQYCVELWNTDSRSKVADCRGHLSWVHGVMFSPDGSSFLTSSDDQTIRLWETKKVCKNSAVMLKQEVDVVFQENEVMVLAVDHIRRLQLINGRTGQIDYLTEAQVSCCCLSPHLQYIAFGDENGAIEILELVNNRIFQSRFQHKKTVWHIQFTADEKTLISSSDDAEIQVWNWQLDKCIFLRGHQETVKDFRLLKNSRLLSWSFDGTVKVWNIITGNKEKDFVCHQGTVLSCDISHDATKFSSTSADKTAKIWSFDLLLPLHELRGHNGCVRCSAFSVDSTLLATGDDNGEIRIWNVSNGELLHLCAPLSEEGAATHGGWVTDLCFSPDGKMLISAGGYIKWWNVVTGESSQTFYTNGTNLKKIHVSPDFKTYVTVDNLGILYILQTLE

[2] = SAR analysis of small molecule inhibitors of Apaf-1 using a LZ-Caspase-9/Caspase-3 Fluorescent Selectivity assay - Set 2.; details: read-out: IC50_Mean
[3] = molecular target: T1, Apoptotic protease-activating factor 1; test: SAR analysis of small molecule Activators of Apaf-1 in a Fluorescent assay - set 2.; details: read-out: EC50_Mean
[4] = SAR analysis of small molecule activators of Apaf-1 using a LZ-Caspase-9/Caspase-3 Fluorescent Selectivity assay - Set 2.; details: read-out: EC50_Mean
Aurora kinase B = Aurora kinase B (Homo sapiens, UniProt Q96GD4)
[5] = molecular target: Vascular endothelial growth factor receptor 2 (Homo sapiens, UniProt P35968)
Aurora kinase A = Aurora kinase A (Homo sapiens, UniProt O14965);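 also: value from the Navigating the Kinome kinase panel profiling, panel entry STK6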
[6] = molecular target: ALK tyrosine kinase receptor (Homo sapiens, UniProt Q9UM73);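 also: ALK tested as one member of a kinase panel screen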
[7] = molecular target: Cell division cycle 7-related protein kinase (Homo sapiens, UniProt O00311);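 also: value obtained from a kinome-wide kinase panel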
Sequence of Cell division cycle 7-related protein kinase (O00311 whole entry): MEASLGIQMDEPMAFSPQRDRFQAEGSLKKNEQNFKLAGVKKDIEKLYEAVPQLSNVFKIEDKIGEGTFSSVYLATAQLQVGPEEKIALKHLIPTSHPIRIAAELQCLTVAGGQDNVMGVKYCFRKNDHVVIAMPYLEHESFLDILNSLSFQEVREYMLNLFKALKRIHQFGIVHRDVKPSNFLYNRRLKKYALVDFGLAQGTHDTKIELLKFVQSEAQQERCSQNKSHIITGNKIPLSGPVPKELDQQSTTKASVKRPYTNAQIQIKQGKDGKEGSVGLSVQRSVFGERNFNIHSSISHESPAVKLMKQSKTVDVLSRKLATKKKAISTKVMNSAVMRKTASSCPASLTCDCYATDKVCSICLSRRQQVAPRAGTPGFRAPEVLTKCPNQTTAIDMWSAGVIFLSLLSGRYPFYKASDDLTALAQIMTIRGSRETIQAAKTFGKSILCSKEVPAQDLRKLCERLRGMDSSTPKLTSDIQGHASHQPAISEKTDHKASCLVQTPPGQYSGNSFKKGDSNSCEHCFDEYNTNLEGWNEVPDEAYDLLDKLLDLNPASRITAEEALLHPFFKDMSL

Sequence of Aurora kinase A (O14965 whole entry): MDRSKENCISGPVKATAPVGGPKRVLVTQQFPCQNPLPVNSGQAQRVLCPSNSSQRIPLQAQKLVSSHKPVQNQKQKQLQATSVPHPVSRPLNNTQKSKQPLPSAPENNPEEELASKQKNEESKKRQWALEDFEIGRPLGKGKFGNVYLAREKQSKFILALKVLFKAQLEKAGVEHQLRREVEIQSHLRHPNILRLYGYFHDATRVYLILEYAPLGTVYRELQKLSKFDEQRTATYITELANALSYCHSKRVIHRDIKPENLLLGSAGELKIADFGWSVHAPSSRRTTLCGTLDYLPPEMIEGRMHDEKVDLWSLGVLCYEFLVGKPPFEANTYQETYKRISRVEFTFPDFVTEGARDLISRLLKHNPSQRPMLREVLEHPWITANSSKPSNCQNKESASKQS
Sequence of Vascular endothelial growth factor receptor 2 (P35968 whole entry): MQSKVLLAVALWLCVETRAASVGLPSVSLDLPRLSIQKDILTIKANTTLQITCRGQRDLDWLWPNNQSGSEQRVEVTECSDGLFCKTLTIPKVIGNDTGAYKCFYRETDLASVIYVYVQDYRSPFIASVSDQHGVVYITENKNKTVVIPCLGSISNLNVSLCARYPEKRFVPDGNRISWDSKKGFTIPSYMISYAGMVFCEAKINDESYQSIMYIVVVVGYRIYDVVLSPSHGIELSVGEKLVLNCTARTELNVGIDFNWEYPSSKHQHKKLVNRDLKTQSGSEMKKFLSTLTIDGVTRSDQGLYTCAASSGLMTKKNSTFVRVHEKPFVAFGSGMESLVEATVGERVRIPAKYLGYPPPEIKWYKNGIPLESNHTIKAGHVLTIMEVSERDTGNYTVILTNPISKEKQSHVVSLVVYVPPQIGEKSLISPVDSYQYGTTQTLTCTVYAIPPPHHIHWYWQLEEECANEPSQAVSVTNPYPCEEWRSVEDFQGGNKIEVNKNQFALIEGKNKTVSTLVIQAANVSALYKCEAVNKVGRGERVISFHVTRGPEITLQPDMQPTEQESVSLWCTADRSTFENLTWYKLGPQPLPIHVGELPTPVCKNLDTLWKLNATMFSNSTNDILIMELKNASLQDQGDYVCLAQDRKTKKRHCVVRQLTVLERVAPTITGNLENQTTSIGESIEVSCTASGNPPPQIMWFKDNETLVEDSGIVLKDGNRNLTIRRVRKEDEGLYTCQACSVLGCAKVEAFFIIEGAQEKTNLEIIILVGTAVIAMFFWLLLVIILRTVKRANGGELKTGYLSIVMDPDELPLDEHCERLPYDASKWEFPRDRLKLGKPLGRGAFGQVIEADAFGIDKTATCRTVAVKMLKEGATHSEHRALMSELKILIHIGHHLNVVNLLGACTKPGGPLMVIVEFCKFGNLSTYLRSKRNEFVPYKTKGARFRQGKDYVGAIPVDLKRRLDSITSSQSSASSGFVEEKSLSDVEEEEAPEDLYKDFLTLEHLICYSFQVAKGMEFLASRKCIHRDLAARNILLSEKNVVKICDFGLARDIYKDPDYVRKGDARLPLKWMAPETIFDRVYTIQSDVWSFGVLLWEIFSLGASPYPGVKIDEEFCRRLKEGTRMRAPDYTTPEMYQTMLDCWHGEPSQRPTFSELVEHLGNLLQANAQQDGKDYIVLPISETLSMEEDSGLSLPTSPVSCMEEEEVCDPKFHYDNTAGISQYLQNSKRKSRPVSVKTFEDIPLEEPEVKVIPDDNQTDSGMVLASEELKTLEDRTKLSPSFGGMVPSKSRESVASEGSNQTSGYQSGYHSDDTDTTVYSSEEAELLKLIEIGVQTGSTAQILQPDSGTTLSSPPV
Sequence of Aurora kinase B (Q96GD4 whole entry): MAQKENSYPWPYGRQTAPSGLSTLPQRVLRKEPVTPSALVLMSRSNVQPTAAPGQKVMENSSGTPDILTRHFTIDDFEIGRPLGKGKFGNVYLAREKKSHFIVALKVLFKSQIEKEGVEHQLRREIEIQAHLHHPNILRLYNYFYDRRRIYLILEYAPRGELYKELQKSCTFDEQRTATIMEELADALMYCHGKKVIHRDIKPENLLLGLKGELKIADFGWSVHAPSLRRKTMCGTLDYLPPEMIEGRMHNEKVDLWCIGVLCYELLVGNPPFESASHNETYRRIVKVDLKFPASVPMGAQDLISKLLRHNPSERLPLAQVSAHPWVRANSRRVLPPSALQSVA
Sequence of ALK tyrosine kinase receptor (Q9UM73 whole entry): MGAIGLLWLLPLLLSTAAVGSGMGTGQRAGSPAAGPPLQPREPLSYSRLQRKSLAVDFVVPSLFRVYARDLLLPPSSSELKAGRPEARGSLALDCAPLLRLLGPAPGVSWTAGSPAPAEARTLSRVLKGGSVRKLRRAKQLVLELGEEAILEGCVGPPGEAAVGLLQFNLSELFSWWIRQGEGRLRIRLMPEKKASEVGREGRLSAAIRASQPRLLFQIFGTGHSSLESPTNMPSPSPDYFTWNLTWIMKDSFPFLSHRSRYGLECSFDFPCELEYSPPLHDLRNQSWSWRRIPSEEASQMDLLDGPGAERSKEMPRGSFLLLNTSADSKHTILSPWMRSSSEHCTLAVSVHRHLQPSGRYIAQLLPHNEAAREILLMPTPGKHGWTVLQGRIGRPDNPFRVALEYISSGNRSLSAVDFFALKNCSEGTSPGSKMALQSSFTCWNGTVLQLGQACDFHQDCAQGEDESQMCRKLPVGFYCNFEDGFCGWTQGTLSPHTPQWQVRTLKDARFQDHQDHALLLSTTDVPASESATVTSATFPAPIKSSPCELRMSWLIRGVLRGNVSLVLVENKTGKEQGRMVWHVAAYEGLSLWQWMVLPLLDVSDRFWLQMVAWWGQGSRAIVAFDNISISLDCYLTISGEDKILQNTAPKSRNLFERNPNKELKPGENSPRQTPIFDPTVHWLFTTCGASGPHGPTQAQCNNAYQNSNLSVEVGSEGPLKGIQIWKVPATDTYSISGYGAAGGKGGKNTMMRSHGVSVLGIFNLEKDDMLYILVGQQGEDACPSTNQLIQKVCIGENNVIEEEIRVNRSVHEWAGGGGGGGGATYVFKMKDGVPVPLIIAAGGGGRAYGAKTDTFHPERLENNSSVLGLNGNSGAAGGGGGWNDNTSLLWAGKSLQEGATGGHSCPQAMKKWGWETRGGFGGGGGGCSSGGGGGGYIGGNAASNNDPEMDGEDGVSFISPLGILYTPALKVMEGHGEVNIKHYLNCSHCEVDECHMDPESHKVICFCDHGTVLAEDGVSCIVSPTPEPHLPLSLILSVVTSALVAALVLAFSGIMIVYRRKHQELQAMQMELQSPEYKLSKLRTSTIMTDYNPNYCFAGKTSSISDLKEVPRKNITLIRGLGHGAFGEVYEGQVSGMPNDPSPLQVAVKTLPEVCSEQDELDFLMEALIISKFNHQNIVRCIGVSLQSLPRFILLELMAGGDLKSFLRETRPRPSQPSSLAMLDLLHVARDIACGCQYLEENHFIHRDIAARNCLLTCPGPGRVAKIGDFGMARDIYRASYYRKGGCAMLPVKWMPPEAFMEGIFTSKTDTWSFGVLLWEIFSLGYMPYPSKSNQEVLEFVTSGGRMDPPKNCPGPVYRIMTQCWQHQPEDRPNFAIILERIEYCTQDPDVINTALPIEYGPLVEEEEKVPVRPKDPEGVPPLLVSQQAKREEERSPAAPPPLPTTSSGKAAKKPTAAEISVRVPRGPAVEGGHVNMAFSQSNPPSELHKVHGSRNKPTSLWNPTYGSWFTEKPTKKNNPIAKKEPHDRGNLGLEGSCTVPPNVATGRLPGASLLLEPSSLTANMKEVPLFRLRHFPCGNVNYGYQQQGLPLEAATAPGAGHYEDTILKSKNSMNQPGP

SMILES: O=C1C(=O)N(Cc2ccc(Cl)c(Cl)c2)c2cc(Cl)ccc21
- IC50 [1]: 53.1 µM (active)
- IC50 [2]: 43.4 µM (active)

SMILES: O=C(O)C1CC(c2c(F)cccc2Cl)=NO1 (centres undefined)
- EC50 [3]: > 100 µM (inactive)
- EC50 [4]: > 100 µM (inactive)

SMILES: CS(=O)(=O)Nc1ccc2c(c1)C(=NO)c1ccccc1-2
- Ki (Aurora kinase B): 0.0398 µM (active)
- Ki [5]: 0.794 µM (active)
- Ki (Aurora kinase A): 0.398 µM (active)

SMILES: OCCc1ccc(Nc2ncnc3[nH]cc(-c4ccccc4)c23)cc1
- Ki [6]: 3.98 µM (active)
- Ki [7]: 0.0794 µM (active)
